In patent US20260274892A1, “MACROCYCLIC BROAD SPECTRUM ANTIBIOTICS” (RQx Pharmaceuticals, Inc., priority 2017, published 2026):

Legend:
[1] = test system: Escherichia coli ATCC 25922; assay: Minimum inhibitory concentration (MIC), CLSI broth micro-dilution, E. coli; type: cell-based; conditions: Escherichia coli, ATCC25922, 22 h, Table 6, cation adjusted Mueller Hinton Broth + 0.002% Tween-80, 35° C.
Procedure, shortened: (§1)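 Colonies grown 20 h at 35° C on Trypticase Soy agar (MRSA) or Luria agar (E. coli) were suspended in cation-adjusted Mueller Hinton broth with 0.002% Tween-80. Suspensions were added at OD600 0.0005 to 10-point twofold compound dilutions, then incubated 22 h at 35° C.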

[2] = test system: Methicillin Resistant Staphylococcus aureus strain USA 200; assay: Minimum inhibitory concentration (MIC), CLSI broth micro-dilution, S. aureus; type: cell-based; conditions: Staphylococcus aureus, MRSA / USA200; Table 6; MRSA USA 200; cation adjusted Mueller Hinton Broth + 0.002% Tween-80; 35° C., 22 hours
Procedure, shortened: as §1

Row | SMILES | MIC [1] [µM] | MIC [2] [µM]
1 | Cc1nc(Cc2ccc(C(C)(C)C)cc2)nc(C)c1C(=O)N[C@@H](CCN)C(=O)N(C)[C@@H]1C(=O)N[C@@H](C)C(=O)N[C@H](C(=O)NCC#N)Cc2ccc(OCCN)c(c2)-c2cc1ccc2OCCN (racemic) [Compound 287, rac-(8S,11S,14S)-3,18-bis(2-aminoethoxy)-N-(cyanomethyl)-11-methyl-14-[methyl-[rac-(2S)-4-amino-2-[[2-[(4-tert-butylphenyl)methyl]-4,6-dimethyl-pyrimidine-5-carbonyl]amino]butanoyl]amino]-10,13-dioxo-9,12-diazatricyclo[13.3.1.12,6]icosa-1(18),2(20),3,5,15(19),16-hexaene-8-carboxamide] | 1 | 0.065
2 | Cc1nc(C(C)(C)c2ccc(C(C)(C)C)cc2)nc(C)c1C(=O)N[C@@H](CCN)C(=O)N(C)[C@@H]1C(=O)N[C@@H](C)C(=O)N[C@H](C(=O)NCC#N)Cc2ccc(OCCN)c(c2)-c2cc1ccc2OCCN (racemic) [Compound 288, rac-(8S,11S,14S)-3,18-bis(2-aminoethoxy)-N-(cyanomethyl)-11-methyl-14-[methyl-[rac-(2S)-4-amino-2-[[2-[1-(4-tert-butylphenyl)-1-methyl-ethyl]-4,6-dimethyl-pyrimidine-5-carbonyl]amino]butanoyl]amino]-10,13-dioxo-9,12-diazatricyclo[13.3.1.12,6]icosa-1(18),2(20),3,5,15(19),16-hexaene-8-carboxamide] | 1.5 | 0.023
3 | Cc1nc(C(F)(F)c2ccc(C(C)(C)C)cc2)nc(C)c1C(=O)N[C@@H](CCN)C(=O)N(C)[C@@H]1C(=O)N[C@@H](C)C(=O)N[C@H](C(=O)NCC#N)Cc2ccc(OCCN)c(c2)-c2cc1ccc2OCCN (racemic) [Compound 289, rac-(8S,11S,14S)-3,18-bis(2-aminoethoxy)-N-(cyanomethyl)-11-methyl-14-[methyl-[rac-(2S)-4-amino-2-[[2-[(4-tert-butylphenyl)-difluoro-methyl]-4,6-dimethyl-pyrimidine-5-carbonyl]amino]butanoyl]amino]-10,13-dioxo-9,12-diazatricyclo[13.3.1.12,6]icosa-1(18),2(20),3,5,15(19),16-hexaene-8-carboxamide] | 0.75 | 0.016
4 | Cc1nc(-c2ccc3c(c2)CCOC3(C)C)nc(C)c1C(=O)N[C@@H](CCN)C(=O)N(C)[C@@H]1C(=O)N[C@@H](C)C(=O)N[C@H](C(=O)NCC#N)Cc2ccc(OCCN)c(c2)-c2cc1ccc2OCCN (racemic) [Compound 290, rac-(8S,11S,14S)-3,18-bis(2-aminoethoxy)-N-(cyanomethyl)-11-methyl-14-[methyl-[rac-(2S)-4-amino-2-[[2-(1,1-dimethylisochroman-6-yl)-4,6-dimethyl-pyrimidine-5-carbonyl]amino]butanoyl]amino]-10,13-dioxo-9,12-diazatricyclo[13.3.1.12,6]icosa-1(18),2(20),3,5,15(19),16-hexaene-8-carboxamide] | 0.75 | 0.19
5 | Cc1nc(-c2ccc(C3CC3)cc2)nc(C)c1C(=O)N[C@@H](CCN)C(=O)N(C)[C@@H]1C(=O)N[C@@H](C)C(=O)N[C@H](C(=O)NCC#N)Cc2ccc(OCCN)c(c2)-c2cc1ccc2OCCN (racemic) [Compound 300, rac-(8S,11S,14S)-3,18-bis(2-aminoethoxy)-N-(cyanomethyl)-11-methyl-14-[methyl-[rac-(2S)-4-amino-2-[[2-(4-cyclopropylphenyl)-4,6-dimethyl-pyrimidine-5-carbonyl]amino]butanoyl]amino]-10,13-dioxo-9,12-diazatricyclo[13.3.1.12,6]icosa-1(18),2(20),3,5,15(19),16-hexaene-8-carboxamide] | 0.25 | 0.031
6 | Cc1nc(C#CC(C)(C)C)nc(C)c1C(=O)N[C@@H](CCN)C(=O)N(C)[C@@H]1C(=O)N[C@@H](C)C(=O)N[C@H](C(=O)NCC#N)Cc2ccc(OCCN)c(c2)-c2cc1ccc2OCCN (racemic) [Compound 306, rac-(8S,11S,14S)-3,18-bis(2-aminoethoxy)-N-(cyanomethyl)-11-methyl-14-[methyl-[rac-(2S)-4-amino-2-[[2-(3,3-dimethylbut-1-ynyl)-4,6-dimethyl-pyrimidine-5-carbonyl]amino]butanoyl]amino]-10,13-dioxo-9,12-diazatricyclo[13.3.1.12,6]icosa-1(18),2(20),3,5,15(19),16-hexaene-8-carboxamide] | 14 | 0.84
7 | CCc1ccc(C#Cc2nc(C)c(C(=O)N[C@@H](CCN)C(=O)N(C)[C@@H]3C(=O)N[C@@H](C)C(=O)N[C@H](C(=O)NCC#N)Cc4ccc(OCCN)c(c4)-c4cc3ccc4OCCN)c(C)n2)cc1 (racemic) [Compound 307, rac-(8S,11S,14S)-3,18-bis(2-aminoethoxy)-N-(cyanomethyl)-11-methyl-14-[methyl-[rac-(2S)-4-amino-2-[[2-[2-(4-ethylphenyl)ethynyl]-4,6-dimethyl-pyrimidine-5-carbonyl]amino]butanoyl]amino]-10,13-dioxo-9,12-diazatricyclo[13.3.1.12,6]icosa-1(18),2(20),3,5,15(19),16-hexaene-8-carboxamide] | 0.2 | 0.033

These reach a lower MIC [1]. Values come first.

Row | MIC [1] [µM] | MIC [2] [µM] | SMILES
8 | 0.19 | 0.047 | Cc1nc(-c2ccc3c(c2)OCCC32CC2)nc(C)c1C(=O)N[C@@H](CCN)C(=O)N(C)[C@@H]1C(=O)N[C@@H](C)C(=O)N[C@H](C(=O)NCC#N)Cc2ccc(OCCN)c(c2)-c2cc1ccc2OCCN (racemic) [Compound 285, rac-(8S,11S,14S)-3,18-bis(2-aminoethoxy)-N-(cyanomethyl)-11-methyl-14-[methyl-[rac-(2S)-4-amino-2-[(4,6-dimethyl-2-spiro[chromane-4,1′-cyclopropane]-7-yl-pyrimidine-5-carbonyl)amino]butanoyl]amino]-10,13-dioxo-9,12-diazatricyclo[13.3.1.12,6]icosa-1(18),2(20),3,5,15(19),16-hexaene-8-carboxamide]
9 | 0.19 | 0.031 | CCCC(F)(F)c1ccc(-c2nc(C)c(C(=O)N[C@@H](CCN)C(=O)N(C)[C@@H]3C(=O)N[C@@H](C)C(=O)N[C@H](C(=O)NCC#N)Cc4ccc(OCCN)c(c4)-c4cc3ccc4OCCN)c(C)n2)cc1 (racemic) [Compound 294, rac-(8S,11S,14S)-3,18-bis(2-aminoethoxy)-N-(cyanomethyl)-11-methyl-14-[methyl-[rac-(2S)-4-amino-2-[[2-[4-(1,1-difluorobutyl)phenyl]-4,6-dimethyl-pyrimidine-5-carbonyl]amino]butanoyl]amino]-10,13-dioxo-9,12-diazatricyclo[13.3.1.12,6]icosa-1(18),2(20),3,5,15(19),16-hexaene-8-carboxamide]
10 | 0.063 | 0.0078 | Cc1nc(C2=CCC(C(C)(C)C)CC2)nc(C)c1C(=O)N[C@@H](CCN)C(=O)N(C)[C@@H]1C(=O)N[C@@H](C)C(=O)N[C@H](C(=O)NCC#N)Cc2ccc(OCCN)c(c2)-c2cc1ccc2OCCN (mixture of isomers) [Compound 295, rac-(8S,11S,14S)-3,18-bis(2-aminoethoxy)-N-(cyanomethyl)-11-methyl-14-[methyl-[rac-(2S)-4-amino-2-[[2-(4-tert-butylcyclohexen-1-yl)-4,6-dimethyl-pyrimidine-5-carbonyl]amino]butanoyl]amino]-10,13-dioxo-9,12-diazatricyclo[13.3.1.12,6]icosa-1(18),2(20),3,5,15(19),16-hexaene-8-carboxamide]
11 | 0.13 | 0.016 | Cc1nc(-c2ccc(C(C)(C)C)cc2O)nc(C)c1C(=O)N[C@@H](CCN)C(=O)N(C)[C@@H]1C(=O)N[C@@H](C)C(=O)N[C@H](C(=O)NCC#N)Cc2ccc(OCCN)c(c2)-c2cc1ccc2OCCN (racemic) [Compound 298, rac-(8S,11S,14S)-3,18-bis(2-aminoethoxy)-N-(cyanomethyl)-11-methyl-14-[methyl-[rac-(2S)-4-amino-2-[[2-(4-tert-butyl-2-hydroxy-phenyl)-4,6-dimethyl-pyrimidine-5-carbonyl]amino]butanoyl]amino]-10,13-dioxo-9,12-diazatricyclo[13.3.1.12,6]icosa-1(18),2(20),3,5,15(19),16-hexaene-8-carboxamide]
12 | 0.094 | 0.016 | Cc1nc(-c2ccc(C3CCC3)cc2)nc(C)c1C(=O)N[C@@H](CCN)C(=O)N(C)[C@@H]1C(=O)N[C@@H](C)C(=O)N[C@H](C(=O)NCC#N)Cc2ccc(OCCN)c(c2)-c2cc1ccc2OCCN (racemic) [Compound 301, rac-(8S,11S,14S)-3,18-bis(2-aminoethoxy)-N-(cyanomethyl)-11-methyl-14-[methyl-[rac-(2S)-4-amino-2-[[2-(4-cyclobutylphenyl)-4,6-dimethyl-pyrimidine-5-carbonyl]amino]butanoyl]amino]-10,13-dioxo-9,12-diazatricyclo[13.3.1.12,6]icosa-1(18),2(20),3,5,15(19),16-hexaene-8-carboxamide]
13 | 0.096 | 0.012 | CCCCc1ccc(C#Cc2nc(C)c(C(=O)N[C@@H](CCN)C(=O)N(C)[C@@H]3C(=O)N[C@@H](C)C(=O)N[C@H](C(=O)NCC#N)Cc4ccc(OCCN)c(c4)-c4cc3ccc4OCCN)c(C)n2)cc1 (racemic) [Compound 308, rac-(8S,11S,14S)-3,18-bis(2-aminoethoxy)-N-(cyanomethyl)-11-methyl-14-[methyl-[rac-(2S)-4-amino-2-[[2-[2-(4-butylphenyl)ethynyl]-4,6-dimethyl-pyrimidine-5-carbonyl]amino]butanoyl]amino]-10,13-dioxo-9,12-diazatricyclo[13.3.1.12,6]icosa-1(18),2(20),3,5,15(19),16-hexaene-8-carboxamide]
